Assay results from patent US7235588B2, “Method for reducing hypertension and heart failure” (The Research Foundation of State University of New York, priority 2001, dated 2007).

How the values were obtained:
[1] = tested on: hearts subjected to ischemia/reperfusion; conditions: cited from earlier work
angiotensinogen mRNA = assay: Angiotensinogen mRNA in hearts subjected to ischemia/reperfusion (primer extension assay); design: species or system rat; conditions: 30 min ischemia and 120 min reperfusion
Description: Ischemia was induced by a modified Langendorf-reperfusion method in rat hearts. Hearts from adult male rats were randomly divided into 4 groups and subjected to ischemia/reperfusion. In the ischemic group, hearts were perfused with Krebs-Henseleit buffer for 60 minutes, followed by 30 minutes of global ischemia. In the ischemic/reperfused group, hearts were perfused for 60 minutes, followed by 30 minutes of global ischemia and 120 minutes of reperfusion. Control group hearts were perfused for the same lengths of time.
Rat hearts subjected to ischemia/reperfusion were tested to determine whether activation of the renin-angiotensin system, as reflected by an increase in angiotensinogen mRNA, occurs in ischemic injury. The level of angiotensinogen mRNA was analyzed by primer extension assay using gene-specific DNA probes. A DNA primer spanning the complementary sequence of the rat angiotensinogen cDNA between nucleotides 302 and 279 (5′-[…]-3′) SEQ ID NO: 1 was end-labeled and used to evaluate the expression of angiotensinogen mRNA in total RNA isolated from the rat heart. The primer extension protocol was performed according to instructions provided by the supplier (Progema). Rat GAPDH cDNA specific primer was used as control. There was a marked increase in mRNA level after 30 minutes of ischemia and 120 minutes of reperfusion (FIG. 5A). […]

[2] = tested on: St-domain/STAT binding activity; assay: Electrophoretic gel mobility-shift assay of St-domain/STAT binding in heart nuclear extracts; design: species or system rat; conditions: hearts, 30 min ischemia/120 min reperfusion
Source text: Nuclear extracts were examined in hearts subjected to global ischemia to determine whether there is enhanced STAT binding activity to the St domain of the angiotensinogen promoter. The nuclear heart extracts were examined by the electrophoretic gel mobility-shift assay that exployed the use of the chemically synthesized oligonucleotide sequence of the St domain. The St-domain DNA probe for protein binding was a double-stranded oligonucleotide containing the sequence 5′-GGGTtcCTGGAAGGG-3′ SEQ. ID NO: 2, and complementary strand 5′-CCCTTCCAGgaACCC-3′ SEQ. ID NO: 3, respectively. These probes were end-labeled by polynucleotide kinase and [γ-^32P]ATP. Binding reaction mixture containing 0.5 ng of labeled DNA (1,000 cpm), 2 μg of poly(dI-C), and 1-12 μg of protein in buffer containing 20 mM Hepes, 3% glycerol, 1.5 mM MgCl2, 1 mM DTT, 2 mM EDTA and 50 mM KCl, pH 7.5 was allowed to incubate at 4° C. for 30 min. The reactions were analyzed by electrophoresis on 8% polyacrylanide gel in 0.375× TBE ([…] Tris borate, pH 8.7 and 1.0 mM EDTA). After electrophoresis, the gels were dried and subjected to autoradiography. […] (FIG. 5B). The activation of STATs and the consequent binding to the St-domain in the angiotensinogen promoter accounts for the increase in transcription of angiotensinogen mRNA. […]

St-domain/STAT binding activity (STAT/DNA complex formation) [2]	SMILES	cardioprotection / myocardial damage due to ischemia [1]	angiotensinogen mRNA level (angiotensinogen mRNA)
	N#C/C(=C\c1ccc(O)c(O)c1)C(=O)NCCCCc1ccccc1 [Tyrphostin AG556]	reduces myocardial damage due to ischemia	
almost entirely abolished	CCCCc1nc(Cl)c(CO)n1Cc1ccc(-c2ccccc2-c2nn[nH]n2)cc1 [losartan]		reduced it almost entirely to the level of the control sample
